Key:
[1] = system: F. intonsa antennae; assay: Electroantennogram (EAG) assay; design: species or system Frankliniella intonsa; details: excised F. intonsa antennae
Description: The FintCSP1, FintCSP2, FintOBP, FintOR, FoccCSP, and enhanced green fluorescent protein (EGFP) coding sequences were obtained from GenBank under accession numbers MT199111, MT211602, OK067245, MT211603, AEP27186.1, and U55761.1, respectively. Primers were designed using Primer Premier 5.0, and the T7 promoter sequence (5′-[…]-3′) was added to the 5′ end of each primer (S1 Table). DNA fragments containing T7 promoter sequences were amplified by PCR using pEASY-T1/target gene or pUC-EGFP (preserved in the laboratory) plasmid DNA as template. Then, a double-stranded RNA (dsRNA) was produced from each target gene using the HiScribe T7 Quick High Yield RNA Synthesis Kit (New England Biolabs) according to the manufacturer’s instructions. Six hundred 2-day-old female F. intonsa or two hundred 2-day-old female F. occidentalis adults were anesthetized using CO2 and microinjected with 40 nL (3 μg/μL) dsRNA (dsFintCSP1 dsFintCSP2, dsFintOBP, dsFintOR or dsFoccCSP or dsEGFP) using a CellTram Oil microinjector (Eppendorf, Hamburg, Germany). The injected thrips were kept on broad beans in an artificial climate incubator as described above and used in subsequent RNAi experiments. Three biological replicates were conducted for each treatment with each dsRNA.
At 24 h after dsRNA injection, the electrophysiological responses of F. intonsa antennae to six volatile components (i.e., m-cymene, cis-3-hexenal, (+)-2-carene, trans-2-hexenal, α-phellandrene, and α-humulene) or F. occidentalis antennae to cis-3-hexenal were recorded using EAG. Antennae of female adult thrips were cut off at the base, and the distal terminus was carefully removed. The tested compounds were dissolved in liquid paraffin, with pure liquid paraffin used as a negative control. An Ag-AgCl2 glass electrode and Kaissling electrode solution were used in the experiment according to Tian et al.. The base of the antenna was inserted into the glass capillary filled with electrode solution at the end of the reference electrode; the top of the antenna was connected to the glass capillary at the end of the recording electrode to ensure no bubbles in the glass capillary. After successful connection, the antennae were stimulated with each chemical in the following order: liquid paraffin, volatile compounds, and liquid paraffin. Stimulus time was 0.2 s with each stimulus at 40 s intervals. At least 10 antennae were tested for each volatile compound. The EAG values to volatile compounds were calculated using the following equation: absolute value of EAG reaction = reaction value of the tested sample—average value of two control measurements.

[2] = system: F. intonsa; assay: Y-tube olfactometer preference test; format: in vivo, Frankliniella intonsa; details: volatile compound vs liquid paraffin control; n = 60
Description: F. intonsa and F. occidentalis preference tests of plant volatile cues were performed using a glass Y-tube olfactometer according to the method described by Wang et al. (2014) with minor modifications. A Y-shaped tube (1-cm inner diameter) consisted of a central tube (10 cm in length) and two arms (10 cm in length, offset by 60°) connected to two different glass odor bottles. One glass odor bottle was 50 cm in height, with a 10-cm inner diameter that contained pepper plants (14-day post-viral infection); the other glass odor bottle was 5 cm in height, with a 3-cm inner diameter for plant VOCs. The airflow in the olfactometer (200 mL/min) was filtered through activated carbon and calibrated using a flow meter at the end of each arm. To remove all visual cues, the Y-tube was positioned horizontally in a black airtight cubic box (90 cm × 60 cm × 40 cm). The tested odor sources (pepper plant VOCs) were enclosed in the odor bottles 5 min prior to each test to allow the odors to fill the arms. Thrips (2-day-old, starved for 1 h) were individually placed in the central tube and allowed to choose between the two arms. When the thrips had climbed over 2/3 of the side arm and stayed there for more than 30 s, it was considered to have made a selection. If the thrips had not made a choice after being placed in the straight arm for 5 min, the insect behaviour was scored as “no selection,” and it was not counted in the total data. The direction of the Y-tube arms and the silicone tubes were adjusted after five tested thrips to eliminate the influence of position. The Y-tube was replaced after 10 tested thrips to eliminate the possible influence of existing odors on thrips behaviour. Each treatment consisted of 20 thrips, with three replicates per treatment.
The FintCSP1, FintCSP2, FintOBP, FintOR, FoccCSP, and enhanced green fluorescent protein (EGFP) coding sequences were obtained from GenBank under accession numbers MT199111, MT211602, OK067245, MT211603, AEP27186.1, and U55761.1, respectively. Primers were designed using Primer Premier 5.0, and the T7 promoter sequence (5′-[…]-3′) was added to the 5′ end of each primer (S1 Table). DNA fragments containing T7 promoter sequences were amplified by PCR using pEASY-T1/target gene or pUC-EGFP (preserved in the laboratory) plasmid DNA as template. Then, a double-stranded RNA (dsRNA) was produced from each target gene using the HiScribe T7 Quick High Yield RNA Synthesis Kit (New England Biolabs) according to the manufacturer’s instructions. […]

SMILES	EAG peak amplitude ([1]; 1 mg/L in liquid paraffin)	EAG peak amplitude ([1]; 10 mg/L in liquid paraffin)	preference of F. intonsa in Y-tube olfactometer (in words) [2]
C/C1=C\CC/C(C)=C/CC(C)(C)/C=C/C1 [α-humulene]	–0.024 mV	–	–
CC1=CC[C@H](C(C)C)C=C1 (racemic) [α-phellandrene]	–	–0.018 mV	–
Cc1cccc(C(C)C)c1 [m-cymene]	–	approximately –0.034 mV	appeared to repel F. intonsa, but this result was not statistically significant

Source: PMC10194981, “Chemosensory protein regulates the behavioural response of Frankliniella intonsa and Frankliniella occidentalis to tomato zonate spot virus–Infected pepper (Capsicum annuum)” (PLOS Pathogens, 2023)
